Measurements: ChEMBL document CHEMBL1141836, “Sporovexins A-C and a new preussomerin analog: antibacterial and antifungal metabolites from the coprophilous fungus Sporormiella vexans” (1999)
Calls of active or inactive are those of the source. No cut-off for these calls is given here.

Key:
Ascobolus = assay: Antifungal activity against Ascobolus furfuraceus NRRL 6460 assessed as reduction in radical growth rate at 200 ug/disk by centerpoint inoculation disk assay; type: functional; design: scale not given: the % may be the effect or the level left
Candida albicans = assay: Antifungal activity against Candida albicans ATCC 10453 at 200 ug/disk by standard disk assay; type: functional, organism-based
Bacillus subtilis = assay: Antibacterial activity against Bacillus subtilis ATCC 6051 at 100 ug/disk by standard disk assay; type: functional; conditions: read-out: IZ

Structure (SMILES)	Activity (Ascobolus)	Activity (Candida albicans)	zone of inhibition at 100 µg/disc (Bacillus subtilis)
O=C1C[C@@H](O)[C@]23Oc4ccc(O)c5c4[C@](Oc4cccc1c42)(O3)[C@@H]1O[C@@H]1[C@H]5O	40%	inactive	
CC(CCOc1ccc(C(=O)NCCC(=O)O)cc1)C(=O)O (configuration not stated)		inactive	
CC(C(=O)O)C(O)COc1ccc(C(=O)O)cc1 (configuration not stated)		inactive	
CC(CCOc1ccc(C(=O)O)cc1)C(=O)O (configuration not stated) [SPOROVEXIN A]	90%	inactive	9 mm
